For series [1], the target named is T1, ENT1 (Homo sapiens, UniProt P62942+Q99808). Put plainly: 3H-Thymidine uptake, potency of Rapadocin analogs (Table 2). The format is cell-based. More on the design: endogenous in cells. The text has this: (§1) Rapadocin is a synthetic macrocycle composed of two ‘domains’—a FKBD (FKBP12 binding domain) and a peptide domain. […] The peptidic fragment can tolerate a range of modifications with varying effects on ENT1 inhibition.
Table 2 discloses the potency of various Rapadocin analogs.
Target sequence in this assay (Q99808 2-456 limits assumed): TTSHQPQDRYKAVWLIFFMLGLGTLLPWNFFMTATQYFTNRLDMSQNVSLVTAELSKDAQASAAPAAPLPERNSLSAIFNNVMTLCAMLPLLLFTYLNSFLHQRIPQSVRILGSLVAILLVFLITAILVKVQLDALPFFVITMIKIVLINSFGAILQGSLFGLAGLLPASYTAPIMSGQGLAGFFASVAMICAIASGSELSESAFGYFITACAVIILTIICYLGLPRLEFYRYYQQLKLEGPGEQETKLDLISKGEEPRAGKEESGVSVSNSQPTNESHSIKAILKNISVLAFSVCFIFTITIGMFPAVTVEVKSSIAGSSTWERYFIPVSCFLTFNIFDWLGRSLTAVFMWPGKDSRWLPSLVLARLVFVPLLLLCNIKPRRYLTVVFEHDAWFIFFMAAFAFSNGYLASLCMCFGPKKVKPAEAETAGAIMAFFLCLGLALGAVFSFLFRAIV
Target sequence in this assay (P62942 2-108 limits assumed): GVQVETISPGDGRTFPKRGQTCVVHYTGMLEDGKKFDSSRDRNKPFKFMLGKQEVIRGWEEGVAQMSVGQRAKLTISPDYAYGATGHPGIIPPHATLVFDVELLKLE

The next series has as its system A549. Put plainly: 3H-Thymidine uptake in A549. The format is cell-based, human. The text has this: (§2) uptake in at least seven cell lines and is predicted to inhibit nucleoside uptake in all human cell lines (see e.g., FIG. 2 and Table 1).
A further series relates to HeLa. Put plainly: 3H-Thymidine uptake in HeLa. In kind it is cell-based, human.
Source text: as §2

Another series relates to HUVEC. As to the kind of experiment: 3H-Thymidine uptake in HUVEC. In kind it is cell-based, human.
Source text: FIG. 2. Rapadocin inhibits ^3H-Thymidine uptake in Human Umbilical Vein Endothelial Cells (HUVEC).
as §2

A further series concerns MDA MB-231. Put plainly: 3H-Thymidine uptake in MDA MB-231. The format is cell-based, human.
Source text: as §2

Series [2] has as its system platelet aggregation in human blood. As to the kind of experiment: Platelet aggregation in human blood activated by ADP. The format is cell-based. As to conditions: FIG. 4. The source says:
(§3) Two human and animal models have been studied to show the efficacy of Rapadocin (FIGS. 4 and 5). Under several physiological conditions, adenosine is released into the blood where it can act on adenosine receptors. Normally, this adenosine (ADO) is rapidly reabsorbed via ENT1. In the presence of Rapadocin, uptake is inhibited and ADO is able to produce enhanced signaling leading to several potentially beneficial physiological responses.

The next series deals with T2, FKBP12 (Homo sapiens, UniProt P62942).
T2 construct: endogenous in cells
As to the kind of experiment: Antagonism of uptake inhibition by FKBP12-binders. The format is cell-based. As to conditions: FIG. 3. The text has this:
FIG. 3. Rapadocin's uptake inhibition is antagonized by FKBP12-binders Rapamycin and FK506.

The nature of series [3]: Solubility in aqueous solutions. The format is physicochemical.
The next series relates to MCF-7. Put plainly: 3H-Thymidine uptake in MCF-7. The format is cell-based, human.
Source text: as §2

The test system of a further series is RKO. Put plainly: 3H-Thymidine uptake in RKO. In kind it is cell-based, human.
Source text: as §2

In series [4] the target is T1, ENT1. Put plainly: 3H-Adenosine / nucleoside uptake by hENT1 (vs hENT2). The format is cell-based. The text has this: FIG. 1. Rapadocin inhibits ^3H-Adenosine uptake by specifically inhibiting hENT1.
Rapadocin inhibits nucleoside
Target sequence in this assay (Q99808 whole entry, the tested form may be a part): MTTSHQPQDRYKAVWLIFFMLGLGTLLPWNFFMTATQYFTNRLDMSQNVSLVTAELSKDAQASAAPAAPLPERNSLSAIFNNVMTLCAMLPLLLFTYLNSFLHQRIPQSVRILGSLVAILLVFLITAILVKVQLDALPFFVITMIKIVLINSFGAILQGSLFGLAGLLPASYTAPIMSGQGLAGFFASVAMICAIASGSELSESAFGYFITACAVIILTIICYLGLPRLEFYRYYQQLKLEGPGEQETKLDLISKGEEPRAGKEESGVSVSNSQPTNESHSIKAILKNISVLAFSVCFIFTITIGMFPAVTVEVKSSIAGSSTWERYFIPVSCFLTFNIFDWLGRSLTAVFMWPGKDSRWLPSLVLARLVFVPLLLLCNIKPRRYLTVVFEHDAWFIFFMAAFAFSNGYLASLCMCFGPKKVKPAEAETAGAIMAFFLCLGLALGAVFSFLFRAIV
Target sequence in this assay (P62942 2-108 limits assumed): as the sequence (P62942 2-108 limits assumed) above

The subject of the next series is 293T. Put plainly: 3H-Thymidine uptake in 293T. The format is cell-based, human.
Source text: as §2

Series [5] relates to kidney ischemia reperfusion injury. Put plainly: Kidney ischemia reperfusion injury mouse model. The format is in vivo.
Source text: as §1, §3

A short description of series [6]: Stability in cell culture media. In kind it is physicochemical. Conditions: 5 days, 37° C., 10% Fetal Bovine Serum.

Molecules are shown by their SMILES. Like-named read-outs stand apart in the source and are kept apart here.

T2 sequence (P62942 whole entry): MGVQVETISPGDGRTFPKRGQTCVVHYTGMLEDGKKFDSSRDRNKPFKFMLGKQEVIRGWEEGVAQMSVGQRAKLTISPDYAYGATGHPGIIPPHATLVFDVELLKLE

A word on the EC50: it is the concentration at which the effect is half-maximal. Turning to `c1ccc2sccc2c1` [Analog 95-15-8], the EC50 on ENT1 [1] (cells printed with uM, read-out: EC50 3H-Tymidine uptake) is greater than 1 µM.
Take `COc1ccc(CC[C@H]2OC(=O)[C@@H]3CCCCN3C(=O)C(=O)C(C)(C)COC(=O)C=CCCN(C)C(=O)[C@H](CC(C)C)N(C)C(=O)[C@@H]3CCCN3C(=O)[C@H](Cc3ccc(OCC(=O)NCCOCCOCCNC(=O)CCCCC4SCC5NC(=O)NC54)cc3)NC(=O)[C@H](c3ccccc3)NC(=O)CCC(=O)Nc3cccc2c3)cc1OC` (some centres unmarked) [JW95TyrBiotin]: at ENT1 [1], the EC50 came out at 0.064 µM.
Same read-out and setting: then `C#CCCC1(CCOc2ccc(C[C@@H]3NC(=O)[C@H](c4ccccc4)NC(=O)CCC(=O)Nc4cccc(c4)[C@@H](CCc4ccc(OC)c(OC)c4)OC(=O)C4CCCCN4C(=O)C(=O)C(C)(C)COC(=O)C=CCCN(C)C(=O)[C@H](CC(C)C)N(C)C(=O)[C@@H]4CCCN4C3=O)cc2)N=N1` (some centres unmarked) [JW95TyrDiaz], with 0.02 µM.
Broadly, the solubility is the concentration that dissolves in the medium under given conditions. Read a low solubility as little dissolved substance. In the case of `COc1ccc(CC[C@H]2OC(=O)[C@@H]3CCCCN3C(=O)C(=O)C(C)(C)COC(=O)/C=C/CCN(C)C(=O)[C@H](CC(C)C)N(C)C(=O)[C@H]3CCCN3C(=O)[C@H](Cc3ccccc3)N(C)C(=O)[C@H](c3ccccc3)NC(=O)CCC(=O)Nc3cccc2c3)cc1OC` [Rapadocin], the EC50 at ENT1 [1] worked out at 0.00616 µM; with A549, 6.3 nM; in the series with HeLa it was 16.3 nM; in the series with HUVEC, 6.4 nM; in the series on MDA MB-231, 41.1 nM; with MCF-7 it was 9 nM. The EC50 in the series on RKO was determined as 11.4 nM; in the series with 293T it was 5 nM. Moreover, in the series on HUVEC (FIG. 2), the 3H-Thymidine uptake inhibition entry was “inhibits”. In series [2], the platelet aggregation entry is reported as “inhibits platelet aggregation”. Besides, the “uptake inhibition in presence of FKBP12-binders Rapamycin and FK506” value on FKBP12 is “antagonized”. Also, the solubility in series [3] was no more than 10 µM. For the same molecule, the 3H-Adenosine uptake inhibition result on ENT1 [4] (FIG. 1, by specifically inhibiting hENT1) is “inhibits”. Further, on ENT1 [4] (selectivity hENT1 over hENT2, FIG. 1), the “inhibition of nucleoside uptake by hENT1 over hENT2” value is “potently and specifically inhibits”. In series [5] (kidney ischemia model), the tolerability in animals result was “safely tolerated”. For the same molecule, the “protection against kidney ischemia reperfusion injury” value in series [5] (mouse model, FIG. 5) was “protects against kidney ischemia reperfusion injury”. Besides, in series [6], the resistance to degradation result is “resist degradation over 5 days”.

These data come from US10774110B2, “Rapadocins, inhibitors of equilibrative nucleoside transporter 1 and uses thereof” (The Johns Hopkins University, priority 2016, dated 2020).
